From patent publication US20230102836A1, “Amoebicidal Compositions for Contact Lens Solutions” (University of the West of Scotland, priority 2019, published 2023)
Where “and” joins values, the source holds several entries; their conditions need not be identical. Equal entries are not always repeated. Where two headings read alike, the source gives them in different places.

Experiments:
[1] = tested on: A. castellanii trophozoites; test: Drug wash-out / alamarBlue-reversion assay, trophozoites; format: cell-based, Acanthamoeba castellanii ATCC 50370
[2] = tested on: A. castellanii trophozoites; test: Cytotoxicity assay on trophozoites (resazurin / alamarBlue); format: cell-based, Acanthamoeba castellanii ATCC 50370; conditions: Acanthamoeba castellanii; Table 2; read-out: IC50 A. castellanii trophozoites
Method: (§1) Acanthamoeba castellanii ATCC 50370 trophozoites and cysts were cultured in Peptone Glucose (PG) medium and encystment medium (Chagla A H, Griffiths A J (1974) Microbiology: 85(1): 139-145) respectively at 25° C. Cysts were prepared by incubating trophozoites for 8 days in encystment medium and integrity validated with calcofluor (0.25 μg/ml) assay (Gatti S et al (2010) J. Med. Microbiol.; 59: 1324-1330) or sodium dodecyl sulfate (SDS, 0.5% w/v) disintegration assay (Dudley R et al (2005) Acta Trop.; 9: 100-8) and microscopic observation.
The compounds used in this study all contained alkyl-carbon chains: three APCs [dodecyl-PC (APC12), tetradecyl-PC. (APC14) and hexadecyl-PC (APC16)] (Anatrace) and four QACs [docdecyl-TMAB (QAC12), tetradecyl-TMAB (QAC14), hexadecyl-TMAB (QAC16) and octadecyl-TMAB (QAC18)](Sigma). All were prepared to a stock concentration of 1 mg/ml and diluted as required by the experimental protocol in the cytotoxicity assays. […]
[…] Resazurin (7-Hydroxy-31-phenoxazin-3-one 10-oxide; 5 mg/ml; McBride J et al (2005) J. Clin. Microbiol.; 43: 629-634) and trypan blue (0.4 μg/ml; Mafra C S P et al (2013) Investig. Ophthalmol. Vis. Si.; 54: 6363-6372) were then added to trophozoites and cysts respectively after being exposed to the compounds and the cell viability estimated microscopically and from changes in absorbance (at 595 nm and 570 nm) respectively.
(§2) Efficacy was expressed as a percentage of untreated controls for each drug concentration used and the data used to calculate the IC50. Cell density was estimated using the modified Neubaur hemocytometer and expressed as cells/ml.

[3] = tested on: Acanthamoeba trophozoites; test: Checkerboard dilution QAC-APC interaction (Bliss model); format: cell-based, Acanthamoeba castellanii; conditions: APC12, APC14, APC16; 96 h at 25° C.
Method: Acanthamoeba trophozoites (10^5 cells/ml. n=5/treatment) treated with 100 μg/ml doubly diluted to 0.06 μg/ml of QAC12 (FIG. 7A), […], QAC16 (FIG. 7C) and QAC18 (FIG. 7D) with APC 12 (i), APCI 4 (ii) and APC16 (iii) for 96 h at 25° C. Cell viability estimated by the alamarBlue assay the dose-response curves used to produce a surface analysis (right panel) and the interaction profile determined using the Bliss model. The degree of interaction characterised by the QCScore heuristic score are produced as heat map (left panel). The colour of each cell in the heatmap and the surface analysis represents the assay response at that dose combination; red to orange, antagonistic: yellow to green, additive and blue, synergistic.
The change in potency between QAC and APC prompted us to used the checkerboard dilution method to identify synergistic interactions (FIG. 7A-D). Three interaction profiles, antagonistic (orange to red), additive (yellow to green) and synergistic (blue) were observed, with optimal synergistic interactions deemed to be significant occurring between 20-38%; (FIG. 7).

[4] = QACs; cited from earlier work
A. castellanii cysts [5] = test: Drug wash-out / alamarBlue-reversion assay, cysts; format: cell-based, Acanthamoeba castellanii ATCC 50370; conditions: for Back transformation to trophozoites after drug wash-out: Cysts; on Back transformation to trophozoites after drug wash-out: key: +: indicates cells reverting back to trophozoites after washout; and capable of oxidizing reduced alamarBlue from blue to pink after 8 days; −: indicates cell that did not revert to trophozoites after wash-out and unable to oxidise reduced alamarBlue solution
Method: For the drug kinetic assay, viability was assessed by the linked alamarBlue-reversion assay. Drug-treated cysts were washed with PBS and fresh PG medium was added to allow reversion to trophozoites for 5 days, after which, alamar blue was added and viability estimated as described above.
The cysticidal activity of QAC16 to QAC18 strongly correlated with (a) the alkyl-carbon chain lengths (Table 2) and the duration of drug contact (FIG. 8H). Like trophozoites, death was via leakage judged by 40% and 50% increase in DNA and proteins in the external milieu after 1 h (FIGS. 9A and 9B). To investigate if the cyst were viable, a complementary viability assay that involved, drug washout, incubation in PG medium to allow reversion of viable cyst to trophozoite for 7 days, and estimation of viability using the oxidation of resazurin after 6 h.

A. castellanii cysts [6] = test: Cytotoxicity assay on cysts (trypan blue); format: cell-based, Acanthamoeba castellanii ATCC 50370; conditions: Acanthamoeba castellanii
Method: as §1
The compounds used in this study all contained alkyl-carbon chains: three APCs [dodecyl-PC (APC12), tetradecyl-PC. (APC14) and hexadecyl-PC (APC16)] (Anatrace) and four QACs [docdecyl-TMAB (QAC12), tetradecyl-TMAB (QAC14), hexadecyl-TMAB (QAC16) and octadecyl-TMAB (QAC18)](Sigma). All were prepared to a stock concentration of 1 mg/ml and diluted as required by the experimental protocol in the cytotoxicity assays. A. castellanii trophozoites and cysts (at 10^5 cells/ml) with or without APCs or QACs (concentrations ranging from […] doubly diluted to 0.04 μg/ml to a final volume of 100 μl) in a 96-well plate were incubated at 25° C. for a duration determined by the experimental protocol.
For the combined assay, similar concentrations of QAC18 and APC16 were prepared and 18.75 μg/ml and 37.5 μg/ml of QAC12 added (to a final volume of 100 μl) were added to 10^5 cells/mi in a 96-well plate and later incubated at 25° C. for a duration determined by the experimental protocol. Resazurin (7-Hydroxy-31-phenoxazin-3-one 10-oxide; 5 mg/ml; McBride J et al (2005) J. Clin. Microbiol.; 43: 629-634) and trypan blue (0.4 μg/ml; Mafra C S P et al (2013) Investig. Ophthalmol. Vis. Si.; 54: 6363-6372) were then added to trophozoites and cysts respectively after being exposed to the compounds and the cell viability estimated microscopically and from changes in absorbance (at 595 nm and 570 nm) respectively.
as §2

Structure (SMILES)	Back transformation to trophozoites after drug wash-out ([1]; 9.375 μg/ml, 1 h)	Back transformation to trophozoites after drug wash-out ([1]; 9.375 μg/ml, 24 h)	Back transformation to trophozoites after drug wash-out ([1]; 9.375 μg/ml, 48 h)	Back transformation to trophozoites after drug wash-out ([1]; 9.375 μg/ml, 72 h)	Back transformation to trophozoites after drug wash-out ([1]; 9.375 μg/ml, 96 h)	Back transformation to trophozoites after drug wash-out ([1]; 18.75 μg/ml, 1 h)	Back transformation to trophozoites after drug wash-out ([1]; 18.75 μg/ml, 24 h)	Back transformation to trophozoites after drug wash-out ([1]; 18.75 μg/ml, 48 h)	Back transformation to trophozoites after drug wash-out ([1]; 18.75 μg/ml, 72 h)	Back transformation to trophozoites after drug wash-out ([1]; 18.75 μg/ml, 96 h)	Back transformation to trophozoites after drug wash-out ([1]; 37.50 μg/ml, 1 h)	Back transformation to trophozoites after drug wash-out ([1]; 37.50 μg/ml, 24 h)	Back transformation to trophozoites after drug wash-out ([1]; 37.50 μg/ml, 48 h)	Back transformation to trophozoites after drug wash-out ([1]; 37.50 μg/ml, 72 h)	Back transformation to trophozoites after drug wash-out ([1]; 37.50 μg/ml, 96 h)	Amoebotoxicity after wash-out and replacement with PG medium ([1]; after 24 h at 18.75 μg/ml)	IC50 [2]	Interaction profile of QAC combined with APCs [3]	CMC [4]	Back transformation to trophozoites after drug wash-out (A. castellanii cysts [5]; 9.375 μg/ml, 24 h)	also measured
CCCCCCCCCCCCCC[N+](C)(C)C.[Br-] [QAC14, tetradecyltrimethyl ammonium bromide]	+	+	+	+	+	+	+	+	+	+	+	−	−	−	−	amoebotoxic	9.07 µg/mL and 27 µM	less frequent and ‘noisy’	2.9 ± 0.1 µM	+	Back transformation to trophozoites after drug wash-out (A. castellanii cysts [5]; 9.375 μg/ml, 48 h): +; Back transformation to trophozoites after drug wash-out (A. castellanii cysts [5]; 9.375 μg/ml, 72 h): +; Back transformation to trophozoites after drug wash-out (A. castellanii cysts [5]; 18.75 μg/ml, 24 h): +; Back transformation to trophozoites after drug wash-out (A. castellanii cysts [5]; 18.75 μg/ml, 48 h): +; Back transformation to trophozoites after drug wash-out (A. castellanii cysts [5]; 18.75 μg/ml, 72 h): +; Back transformation to trophozoites after drug wash-out (A. castellanii cysts [5]; 37.50 μg/ml, 24 h): +; Back transformation to trophozoites after drug wash-out (A. castellanii cysts [5]; 37.50 μg/ml, 48 h): +; Back transformation to trophozoites after drug wash-out (A. castellanii cysts [5]; 37.50 μg/ml, 72 h): +; IC50 (A. castellanii cysts [6]; Table 2, read-out: IC50 A. castellanii cysts): 22.1 µg/mL and 65 µM; IC50 (A. castellanii cysts [6]; after 96 h, trypan blue viability assay, read-out: Estimated IC50 against matured cysts): 15 µg/mL
CCCCCCCCCCCCCCCC[N+](C)(C)C.[Br-] [QAC16, hexadecyltrimethyl ammonium bromide]	+	+	+	+	+	+	−	−	−	−	−	−	−	−	−	amoebotoxic	4.9 µg/mL and 19 µM	less frequent and ‘noisy’	0.26 ± 0.2 µM	+	Amoebotoxicity after wash-out and replacement with PG medium ([1]; from 1 h onwards at 37.5 μg/ml): amoebotoxic; Resurgence of cysts after drug washout (A. castellanii cysts [5]; 37.5 μg/ml after 48 h): No resurgence; Back transformation to trophozoites after drug wash-out (A. castellanii cysts [5]; 9.375 μg/ml, 48 h): +; Back transformation to trophozoites after drug wash-out (A. castellanii cysts [5]; 9.375 μg/ml, 72 h): +; Back transformation to trophozoites after drug wash-out (A. castellanii cysts [5]; 18.75 μg/ml, 24 h): +; Back transformation to trophozoites after drug wash-out (A. castellanii cysts [5]; 18.75 μg/ml, 48 h): +; Back transformation to trophozoites after drug wash-out (A. castellanii cysts [5]; 18.75 μg/ml, 72 h): +; Back transformation to trophozoites after drug wash-out (A. castellanii cysts [5]; 37.50 μg/ml, 24 h): +; Back transformation to trophozoites after drug wash-out (A. castellanii cysts [5]; 37.50 μg/ml, 48 h): −; Back transformation to trophozoites after drug wash-out (A. castellanii cysts [5]; 37.50 μg/ml, 72 h): −; IC50 (A. castellanii cysts [6]; 96 h, read-out: Estimated IC50 against matured cysts): 19 ± 0.03 µg/mL; IC50 (A. castellanii cysts [6]; read-out: IC50 A. castellanii cysts): 19.2 µg/mL and 72 µM
